Results taken from PubChem BioAssay AID2060508 (Molecular Pharmacology Branch, DTP, NCI, 2025).
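Further: spheroids exposed to compounds for seven days; 100% = DMSO vehicle control viability.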

What follows are compounds tested on 454973-116-R2-J3-PDC spheroids, viability, % test/control (assay: Anticancer human tumor 454973-116-R2-J3-PDC patient-derived pancreatic carcinoma cell line growth inhibition [GQUAD]). Conditions: second compound 10 µM; first compound 0.0316 µM; active compounds read low; spheroids with HUVEC and MSC.
Outline: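 Tumor cells were grown as complex spheroids with HUVEC endothelial cells and mesenchymal stem cells as stroma. G-quadruplex stabilizers were combined with targeted agents over half-log dilutions from near the clinical Cmax, or from 10 microM.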
For C=CC(=O)N1CCN(c2nc(=O)n(-c3c(C)ccnc3C(C)C)c3nc(-c4c(O)cccc4F)c(F)cc23)C(C)C1 (configuration not stated) + Cc1[nH]c2ccc(F)cc2c1-c1nc2c3cccnc3c3ncccc3c2[nH]1, the viability, T/C was 93.8%. With CCc1c2c(nc3ccc(O)cc13)-c1cc3c(c(=O)n1C2)COC(=O)[C@]3(O)CC + Cc1[nH]c2ccc(F)cc2c1-c1nc2c3cccnc3c3ncccc3c2[nH]1 the viability, T/C was 14.2%. Work on COc1cc(C2c3cc4c(cc3C(OC3OC5COC(C)OC5C(O)C3O)C3COC(=O)C23)OCO4)cc(OC)c1O (configuration not stated) + Cc1[nH]c2ccc(F)cc2c1-c1nc2c3cccnc3c3ncccc3c2[nH]1 yielded a viability, T/C of 97.1%. In the case of COc1cccc2c1C(=O)c1c(O)c3c(c(O)c1C2=O)CC(O)(C(=O)CO)CC3OC1CC(N)C(O)C(C)O1 (configuration not stated) + Cc1[nH]c2ccc(F)cc2c1-c1nc2c3cccnc3c3ncccc3c2[nH]1, the viability, T/C is reported as 81.9%. For Cc1cccc(N(C)C(=O)C2C(O)CCN2c2nc(C)cc(C(F)(F)F)c2C#N)c1 (configuration not stated) + Cc1[nH]c2ccc(F)cc2c1-c1nc2c3cccnc3c3ncccc3c2[nH]1, the viability, T/C was 105%.

Same assay, conditions: second compound 10 µM; first compound 0.0999 µM; active compounds read low; spheroids with HUVEC and MSC
With CCc1c2c(nc3ccc(O)cc13)-c1cc3c(c(=O)n1C2)COC(=O)[C@]3(O)CC + Cc1[nH]c2ccc(F)cc2c1-c1nc2c3cccnc3c3ncccc3c2[nH]1 the viability, T/C was 8.05%.

Same assay, conditions: second compound 10 µM; first compound 0.1 µM; active compounds read low; spheroids with HUVEC and MSC
C=CC(=O)N1CCN(c2nc(=O)n(-c3c(C)ccnc3C(C)C)c3nc(-c4c(O)cccc4F)c(F)cc23)C(C)C1 (configuration not stated) + Cc1[nH]c2ccc(F)cc2c1-c1nc2c3cccnc3c3ncccc3c2[nH]1 gave a viability, T/C of 81.8%. In the case of COc1cc(C2c3cc4c(cc3C(OC3OC5COC(C)OC5C(O)C3O)C3COC(=O)C23)OCO4)cc(OC)c1O (configuration not stated) + Cc1[nH]c2ccc(F)cc2c1-c1nc2c3cccnc3c3ncccc3c2[nH]1, the viability, T/C is reported as 84.4%. COc1cccc2c1C(=O)c1c(O)c3c(c(O)c1C2=O)CC(O)(C(=O)CO)CC3OC1CC(N)C(O)C(C)O1 (configuration not stated) + Cc1[nH]c2ccc(F)cc2c1-c1nc2c3cccnc3c3ncccc3c2[nH]1 was tested, and the viability, T/C was 64.7%. Cc1cccc(N(C)C(=O)C2C(O)CCN2c2nc(C)cc(C(F)(F)F)c2C#N)c1 (configuration not stated) + Cc1[nH]c2ccc(F)cc2c1-c1nc2c3cccnc3c3ncccc3c2[nH]1 gave a viability, T/C of 95.8%.

Same assay, conditions: second compound 10 µM; first compound 0.316 µM; active compounds read low; spheroids with HUVEC and MSC
Work on C=CC(=O)N1CCN(c2nc(=O)n(-c3c(C)ccnc3C(C)C)c3nc(-c4c(O)cccc4F)c(F)cc23)C(C)C1 (configuration not stated) + Cc1[nH]c2ccc(F)cc2c1-c1nc2c3cccnc3c3ncccc3c2[nH]1 yielded a viability, T/C of 104%. Work on CCc1c2c(nc3ccc(O)cc13)-c1cc3c(c(=O)n1C2)COC(=O)[C@]3(O)CC + Cc1[nH]c2ccc(F)cc2c1-c1nc2c3cccnc3c3ncccc3c2[nH]1 yielded a viability, T/C of 3.9%. With COc1cc(C2c3cc4c(cc3C(OC3OC5COC(C)OC5C(O)C3O)C3COC(=O)C23)OCO4)cc(OC)c1O (configuration not stated) + Cc1[nH]c2ccc(F)cc2c1-c1nc2c3cccnc3c3ncccc3c2[nH]1 the viability, T/C was 80.7%. Work on COc1cccc2c1C(=O)c1c(O)c3c(c(O)c1C2=O)CC(O)(C(=O)CO)CC3OC1CC(N)C(O)C(C)O1 (configuration not stated) + Cc1[nH]c2ccc(F)cc2c1-c1nc2c3cccnc3c3ncccc3c2[nH]1 yielded a viability, T/C of 27%. Work on Cc1cccc(N(C)C(=O)C2C(O)CCN2c2nc(C)cc(C(F)(F)F)c2C#N)c1 (configuration not stated) + Cc1[nH]c2ccc(F)cc2c1-c1nc2c3cccnc3c3ncccc3c2[nH]1 yielded a viability, T/C of 101%.

Same assay, conditions: second compound 10 µM; first compound 1 µM; active compounds read low; spheroids with HUVEC and MSC
C=CC(=O)N1CCN(c2nc(=O)n(-c3c(C)ccnc3C(C)C)c3nc(-c4c(O)cccc4F)c(F)cc23)C(C)C1 (configuration not stated) + Cc1[nH]c2ccc(F)cc2c1-c1nc2c3cccnc3c3ncccc3c2[nH]1 was tested, and the viability, T/C was 92.8%. Work on COc1cc(C2c3cc4c(cc3C(OC3OC5COC(C)OC5C(O)C3O)C3COC(=O)C23)OCO4)cc(OC)c1O (configuration not stated) + Cc1[nH]c2ccc(F)cc2c1-c1nc2c3cccnc3c3ncccc3c2[nH]1 yielded a viability, T/C of 55.3%. With COc1cccc2c1C(=O)c1c(O)c3c(c(O)c1C2=O)CC(O)(C(=O)CO)CC3OC1CC(N)C(O)C(C)O1 (configuration not stated) + Cc1[nH]c2ccc(F)cc2c1-c1nc2c3cccnc3c3ncccc3c2[nH]1 the viability, T/C was 27.1%. For Cc1cccc(N(C)C(=O)C2C(O)CCN2c2nc(C)cc(C(F)(F)F)c2C#N)c1 (configuration not stated) + Cc1[nH]c2ccc(F)cc2c1-c1nc2c3cccnc3c3ncccc3c2[nH]1, the viability, T/C was 90.2%.

Same assay, conditions: second compound 10 µM; first compound 3.16 µM; active compounds read low; spheroids with HUVEC and MSC
C=CC(=O)N1CCN(c2nc(=O)n(-c3c(C)ccnc3C(C)C)c3nc(-c4c(O)cccc4F)c(F)cc23)C(C)C1 (configuration not stated) + Cc1[nH]c2ccc(F)cc2c1-c1nc2c3cccnc3c3ncccc3c2[nH]1 gave a viability, T/C of 89.6%. Work on COc1cc(C2c3cc4c(cc3C(OC3OC5COC(C)OC5C(O)C3O)C3COC(=O)C23)OCO4)cc(OC)c1O (configuration not stated) + Cc1[nH]c2ccc(F)cc2c1-c1nc2c3cccnc3c3ncccc3c2[nH]1 yielded a viability, T/C of 23%. COc1cccc2c1C(=O)c1c(O)c3c(c(O)c1C2=O)CC(O)(C(=O)CO)CC3OC1CC(N)C(O)C(C)O1 (configuration not stated) + Cc1[nH]c2ccc(F)cc2c1-c1nc2c3cccnc3c3ncccc3c2[nH]1 gave a viability, T/C of 11.5%. Cc1cccc(N(C)C(=O)C2C(O)CCN2c2nc(C)cc(C(F)(F)F)c2C#N)c1 (configuration not stated) + Cc1[nH]c2ccc(F)cc2c1-c1nc2c3cccnc3c3ncccc3c2[nH]1 was tested, and the viability, T/C was 99%.

Same assay, conditions: second compound 10 µM; first compound 10 µM; active compounds read low; spheroids with HUVEC and MSC
For C=CC(=O)N1CCN(c2nc(=O)n(-c3c(C)ccnc3C(C)C)c3nc(-c4c(O)cccc4F)c(F)cc23)C(C)C1 (configuration not stated) + Cc1[nH]c2ccc(F)cc2c1-c1nc2c3cccnc3c3ncccc3c2[nH]1, the viability, T/C was 83.6%. Work on COc1cc(C2c3cc4c(cc3C(OC3OC5COC(C)OC5C(O)C3O)C3COC(=O)C23)OCO4)cc(OC)c1O (configuration not stated) + Cc1[nH]c2ccc(F)cc2c1-c1nc2c3cccnc3c3ncccc3c2[nH]1 yielded a viability, T/C of 13.2%. COc1cccc2c1C(=O)c1c(O)c3c(c(O)c1C2=O)CC(O)(C(=O)CO)CC3OC1CC(N)C(O)C(C)O1 (configuration not stated) + Cc1[nH]c2ccc(F)cc2c1-c1nc2c3cccnc3c3ncccc3c2[nH]1 showed a viability, T/C of 0.75%. Cc1cccc(N(C)C(=O)C2C(O)CCN2c2nc(C)cc(C(F)(F)F)c2C#N)c1 (configuration not stated) + Cc1[nH]c2ccc(F)cc2c1-c1nc2c3cccnc3c3ncccc3c2[nH]1 gave a viability, T/C of 101%.
